Experimental findings from patent publication US11932634B2 (Gilead Sciences, Inc., priority 2021, dated 2024) are described below.

Experiment [1] deals with Jurkat NFκB-luciferase cells. The experiment in a line: Jurkat NFκB-Luciferase Assay.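 Also: bioluminescence read-out normalized to DMSO basal activation and to maximum enhancement at 1 µM compound, rising signal indicating stronger T-cell activation through DGKα inhibition.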 Format: cell-based. Conditions: Homo sapiens; Jurkat NFκB-luciferase cells activated with anti-CD3 antibody (OKT3), 2.5 hrs at 37° C., One-Glo Ex; geometric mean; read-out: DGK NFKb Luciferase EC50.
Description: The activity of compounds was tested in a cell based NFκB reporter assay. Jurkat cells that are stably expressing a luciferase reporter construct under the transcriptional control of a NFκB reporter element were activated with an anti-CD3 antibody and luciferase levels were measured with a bioluminescence readout.
The day after, the excess antibody was washed out five times with 100 ul/well of assay medium (RPMI supplemented with 10% fetal bovine serum) using a Biotek EL406 instrument and leaving 20 µl of residual volume in each well. Jurkat NFκB-luciferase cells (Promega #) were harvested and diluted to 1 million cells/ml in assay medium. Sixty nanoliters of test compound dissolved in DMSO at various concentrations were dispensed into 384-well v-bottom polypropylene plates (Greiner) using a Labcyte Echo instrument. Thirty microliters of medium containing the Jurkat NFκB-luciferase cells were then dispensed using a Biotek MicroFlo instrument in each well of the compound-containing plate. The medium/cell/compound mixture was mixed with a Bravo instrument and 20 ul/well of the mixture was transferred to the anti-CD3-coated plate. The assay mixture was then incubated for 2.5 hrs at 37° C. followed by equilibration at 25° C. for 30 min. Forty microliters of One-Glo Ex (Promega) was then added to the assay mixture and luciferase activity was read on a Envision plate reader 7 minutes later.
Bioluminescence data were normalized based on maximum enhancement (1 micromolar of compound) and on basal activation (DMSO) controls. Least squares curve fittings were performed using a four-parameter variable slope nonlinear regression model. […] EC50 values from multiple experiments were averaged by geometric mean and the standard deviation was calculated.
Experiment [2] addresses T1, human DGKα (Homo sapiens, UniProt P23743).
T1 construct: purchased Carna Biosciences'; inferred from the same paragraph's 'obtained from Carna Biosciences')
Description: DGKα Biochemical Activity Assay (ADP-Glo).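 Also: recombinant enzyme converting diacylglycerol in lipid micelles with ATP, ADP formed detected by luminescence, IC50 from a four-parameter nonlinear fit, geometric mean across experiments.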 A general note: In ADP-Glo the light output rises with the ADP produced.

T1 sequence (P23743 whole entry): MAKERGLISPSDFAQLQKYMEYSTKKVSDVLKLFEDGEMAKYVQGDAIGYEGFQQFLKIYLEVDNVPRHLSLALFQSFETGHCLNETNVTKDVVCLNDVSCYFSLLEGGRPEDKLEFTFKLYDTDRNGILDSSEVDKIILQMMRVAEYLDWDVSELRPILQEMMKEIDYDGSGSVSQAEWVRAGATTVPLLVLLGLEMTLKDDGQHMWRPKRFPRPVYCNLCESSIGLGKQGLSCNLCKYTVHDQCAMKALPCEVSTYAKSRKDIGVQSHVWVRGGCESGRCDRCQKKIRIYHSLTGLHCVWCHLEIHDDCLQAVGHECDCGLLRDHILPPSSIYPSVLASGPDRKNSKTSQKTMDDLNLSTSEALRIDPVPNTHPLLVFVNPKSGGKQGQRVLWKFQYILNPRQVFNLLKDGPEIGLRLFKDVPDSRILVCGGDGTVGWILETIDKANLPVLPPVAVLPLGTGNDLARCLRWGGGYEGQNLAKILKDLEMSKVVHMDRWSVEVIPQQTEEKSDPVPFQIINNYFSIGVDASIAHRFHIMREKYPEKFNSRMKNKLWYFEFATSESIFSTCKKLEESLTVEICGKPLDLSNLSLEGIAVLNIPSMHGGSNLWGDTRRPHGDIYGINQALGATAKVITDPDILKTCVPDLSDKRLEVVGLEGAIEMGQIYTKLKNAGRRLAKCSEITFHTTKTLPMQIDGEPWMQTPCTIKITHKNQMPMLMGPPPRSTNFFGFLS

Usually EC50 stands for the concentration at which the effect is half-maximal. A word on the IC50: it is the midpoint of a concentration-inhibition curve. The low end stands for inhibition by little substance, the high end for a need for much substance. For `O=c1nc(N2CCCCc3c(C#CC4(C(F)(F)F)CC4)cncc32)c2c(F)c(F)ccc2[nH]1` [Example 151, 5,6-difluoro-4-(6-((1-(trifluoromethyl)cyclopropyl)ethynyl)-2,3,4,5-tetrahydro-1H-pyrido[3,4-b]azepin-1-yl)quinazolin-2(1H)-one], the EC50 in experiment [1] was 0.954 nM. Moreover, the IC50 in experiment [2] was 18 nM.

For the compound `CC1(C#Cc2cncc3c2CCCCN3c2nc(=O)[nH]c3cccc(F)c23)CC1` [Example 152, 5-fluoro-4-(6-((1-methylcyclopropyl)ethynyl)-2,3,4,5-tetrahydro-1H-pyrido[3,4-b]azepin-1-yl)quinazolin-2(1H)-one], the EC50 in experiment [1] came out at 0.679 nM. This compound gave a concentration for half-maximal inhibition (IC50) in experiment [2] of 16.2 nM.

For the compound `CC(C)(O)C#Cc1cccc2c1COCCN2c1nc(=O)[nH]c2c(F)ccc(F)c12` [Example 155], the EC50 in experiment [1] amounted to 53.8 nM. In addition, the half-inhibitory concentration (IC50) in experiment [2] is 16.2 nM.

On to `O=c1nc(N2CCCCc3c(C#CC4(C(F)(F)F)CC4)cccc32)c2c(F)cccc2[nH]1` [Example 156, 5-fluoro-4-(6-((1-(trifluoromethyl)cyclopropyl)ethynyl)-2,3,4,5-tetrahydro-1H-benzo[b]azepin-1-yl)quinazolin-2(1H)-one], for which the EC50 in experiment [1] amounted to 0.308 nM. The compound also gave an IC50 in experiment [2] of 22.6 nM.

For the compound `CC1(C#Cc2cccc3c2CCCCN3c2nc(=O)[nH]c3cccc(F)c23)CC1` [Example 157, 5-fluoro-4-(6-((1-methylcyclopropyl)ethynyl)-2,3,4,5-tetrahydro-1H-benzo[b]azepin-1-yl)quinazolin-2(1H)-one], the EC50 in experiment [1] stood at 0.58 nM. This compound also gave an IC50 in experiment [2] of 26 nM.

On to `CC(C)(C#Cc1cccc2c1COCCN2c1nc(=O)[nH]c2cccc(F)c12)NC(=O)C1(C(F)(F)F)CC1` [Example 158, N-(4-(1-(5-fluoro-2-oxo-1,2-dihydroquinazolin-4-yl)-1,2,3,5-tetrahydrobenzo[e][1,4]oxazepin-6-yl)-2-methylbut-3-yn-2-yl)-1-(trifluoromethyl)cyclopropane-1-carboxamide], for which the EC50 in experiment [1] is 11 nM. This compound also yielded an IC50 in experiment [2] of 9.31 nM.

Regarding `[2H]C([2H])([2H])n1c(=O)nc(N2CCCc3c(C#CC4(C)CC4)cncc32)c2c(F)c(F)ccc21` [Example 159, 5,6-difluoro-1-(methyl-d3)-4-(5-((1-methylcyclopropyl)ethynyl)-3,4-dihydro-1,7-naphthyridin-1(2H)-yl)quinazolin-2(1H)-one], the EC50 in experiment [1] is 0.685 nM. In experiment [2], the IC50 turned out to be 2.03 nM.

For `[2H]C([2H])([2H])n1c(=O)nc(N2CCCc3c(C#CC4(C(F)(F)F)CC4)cncc32)c2c(F)c(F)ccc21` [Example 160, 5,6-difluoro-1-(methyl-d3)-4-(5-((1-(trifluoromethyl)cyclopropyl)ethynyl)-3,4-dihydro-1,7-naphthyridin-1(2H)-yl)quinazolin-2(1H)-one], in experiment [1], the EC50 was 0.936 nM. Besides, in experiment [2], half-maximal inhibition (IC50) required 5.36 nM.

In the case of `[2H]C([2H])([2H])n1c(=O)nc(N2CCCc3c(C#CC4CCCN4C)cccc32)c2c(F)cccc21` (centres unmarked) [Example 161, 5-fluoro-4-[5-[2-(1-methylpyrrolidin-2-yl)ethynyl]-3,4-dihydro-2H-quinolin-1-yl]-1-(trideuteriomethyl)quinazolin-2-one], the EC50 in experiment [1] is 2.8 nM. Further, the concentration for half-maximal inhibition (IC50) in experiment [2] was 16.7 nM.

Regarding `[2H]C([2H])([2H])n1c(=O)nc(N2CCCc3c(C#CC4CCCN4CC(F)F)cccc32)c2c(F)cccc21` (centres unmarked) [Example 162, 4-[5-[2-[1-(2,2-difluoroethyl)pyrrolidin-2-yl]ethynyl]-3,4-dihydro-2H-quinolin-1-yl]-5-fluoro-1-(trideuteriomethyl)quinazolin-2-one], the concentration giving a half-maximal response (EC50) in experiment [1] came to 1.26 nM. Moreover, the IC50 in experiment [2] came to 9.27 nM.

Consider `O=c1nc(N2CCCCc3c(Br)cncc32)c2cc(F)ccc2[nH]1` [Example 163, 4-(6-bromo-2,3,4,5-tetrahydro-1H-pyrido[3,4-b]azepin-1-yl)-6-fluoroquinazolin-2(1H)-one], for which, in experiment [1], the EC50 is 8.9 nM. This compound had an IC50 in experiment [2] of 48.7 nM.

Consider `CC1(C#Cc2cncc3c2CCCCN3c2nc(=O)[nH]c3ccc(F)cc23)CC1` [Example 164, 6-fluoro-4-(6-((1-methylcyclopropyl)ethynyl)-2,3,4,5-tetrahydro-1H-pyrido[3,4-b]azepin-1-yl)quinazolin-2(1H)-one], for which the EC50 in experiment [1] was found to be 0.693 nM. The compound also displayed an IC50 in experiment [2] of 5.58 nM.

For `O=c1nc(N2CCCCc3c(C#CC4(C(F)(F)F)CC4)cncc32)c2cc(F)ccc2[nH]1` [Example 165, 6-fluoro-4-(6-((1-(trifluoromethyl)cyclopropyl)ethynyl)-2,3,4,5-tetrahydro-1H-pyrido[3,4-b]azepin-1-yl)quinazolin-2(1H)-one], the EC50 in experiment [1] was found to be 0.635 nM. Inhibition in experiment [2] was half-maximal at 12.2 nM (IC50).

With `[2H]C([2H])([2H])n1c(=O)nc(N2CCCc3c(C#CC4CCN(C)C4)cccc32)c2c(F)cccc21` (centres unmarked) [Example 166, 5-fluoro-4-[5-[2-(1-methylpyrrolidin-3-yl)ethynyl]-3,4-dihydro-2H-quinolin-1-yl]-1-(trideuteriomethyl)quinazolin-2-one], in experiment [1], the EC50 worked out at 6.71 nM. It took 71.5 nM to reach half-maximal inhibition in experiment [2] (IC50).

For the compound `[2H]C([2H])([2H])n1c(=O)nc(N2CCOCc3c(C#CC4CCCN4C)cccc32)c2c(F)cccc21` (centres unmarked) [Example 167, 5-fluoro-4-[6-[2-(1-methylpyrrolidin-2-yl)ethynyl]-3,5-dihydro-2H-4,1-benzoxazepin-1-yl]-1-(trideuteriomethyl)quinazolin-2-one], in experiment [1], the EC50 amounted to 11 nM. Further, it took 18.5 nM to reach half-maximal inhibition in experiment [2] (IC50).

As to `[2H]C([2H])([2H])n1c(=O)nc(N2CCOCc3c(C#CC4CCCN4CC(F)F)cccc32)c2c(F)cccc21` (centres unmarked) [Example 168, 4-[6-[2-[1-(2,2-difluoroethyl)pyrrolidin-2-yl]ethynyl]-3,5-dihydro-2H-4,1-benzoxazepin-1-yl]-5-fluoro-1-(trideuteriomethyl)quinazolin-2-one], the EC50 in experiment [1] was determined as 1.55 nM. In experiment [2], this compound returned an IC50 of 5.33 nM.

Take `[2H]C([2H])([2H])n1c(=O)nc(N2CCOCc3c(C#CC4CCCN4C(=O)C4CC4)cccc32)c2c(F)cccc21` (centres unmarked) [Example 169, 4-[6-[2-[1-(cyclopropanecarbonyl)pyrrolidin-2-yl]ethynyl]-3,5-dihydro-2H-4,1-benzoxazepin-1-yl]-5-fluoro-1-(trideuteriomethyl)quinazolin-2-one]: in experiment [1], the EC50 was 12.8 nM. In experiment [2], this compound came in with an IC50 of 9.06 nM.

Consider `[2H]C([2H])([2H])n1c(=O)nc(N2CCOCc3c(C#CC4(C(F)(F)F)CCN(C)C4)cccc32)c2c(F)cccc21` (centres unmarked) [Example 170, 5-fluoro-4-[6-[2-[1-methyl-3-(trifluoromethyl)pyrrolidin-3-yl]ethynyl]-3,5-dihydro-2H-4,1-benzoxazepin-1-yl]-1-(trideuteriomethyl)quinazolin-2-one], for which the EC50 in experiment [1] was 3.75 nM. Moreover, in experiment [2], the IC50 is 25.7 nM.

With `[2H]C([2H])([2H])n1c(=O)nc(N2CCOCc3c(C#CC4(C(F)(F)F)CCN(C5COC5)C4)cccc32)c2c(F)cccc21` (centres unmarked) [Example 171, 5-fluoro-4-[6-[2-[1-(oxetan-3-yl)-3-(trifluoromethyl)pyrrolidin-3-yl]ethynyl]-3,5-dihydro-2H-4,1-benzoxazepin-1-yl]-1-(trideuteriomethyl)quinazolin-2-one], the concentration for a half-maximal effect (EC50) in experiment [1] came out at 4.99 nM. The same compound yielded an IC50 in experiment [2] of 11.4 nM.

On to `[2H]C([2H])([2H])n1c(=O)nc(N2CCOCc3c(C#CC4(C(F)(F)F)CCN(CC(F)F)C4)cccc32)c2c(F)cccc21` (centres unmarked) [Example 172, 4-[6-[2-[1-(2,2-difluoroethyl)-3-(trifluoromethyl)pyrrolidin-3-yl]ethynyl]-3,5-dihydro-2H-4,1-benzoxazepin-1-yl]-5-fluoro-1-(trideuteriomethyl)quinazolin-2-one], for which the 50% effective concentration (EC50) in experiment [1] is 1.4 nM. The same compound came in with an IC50 in experiment [2] of 8.07 nM.

Take `[2H]C([2H])([2H])n1c(=O)nc(N2CCOCc3c(C#CC45CC(CN4CC(F)F)C5)cccc32)c2c(F)cccc21` [Example 173, 4-[6-[2-[2-(2,2-difluoroethyl)-2-azabicyclo[2.1.1]hexan-1-yl]ethynyl]-3,5-dihydro-2H-4,1-benzoxazepin-1-yl]-5-fluoro-1-(trideuteriomethyl)quinazolin-2-one]: the EC50 in experiment [1] is 0.401 nM. Also, the IC50 in experiment [2] was 0.731 nM.

Regarding `[2H]C([2H])([2H])n1c(=O)nc(N2CCOCc3c(C#CC45CC(CN4C)C5)cccc32)c2c(F)cccc21` [Example 174, 5-fluoro-4-[6-[2-(2-methyl-2-azabicyclo[2.1.1]hexan-1-yl)ethynyl]-3,5-dihydro-2H-4,1-benzoxazepin-1-yl]-1-(trideuteriomethyl)quinazolin-2-one], the EC50 in experiment [1] came out at 32.9 nM. Besides, in experiment [2], the IC50 stood at 66.4 nM.

With `[2H]C([2H])([2H])n1c(=O)nc(N2CCOCc3c(C#CC(C)(C)N)cccc32)c2c(F)cccc21` [Example 175, 4-(6-(3-amino-3-methylbut-1-yn-1-yl)-2,3-dihydrobenzo[e][1,4]oxazepin-1(5H)-yl)-5-fluoro-1-(methyl-d3)quinazolin-2(1H)-one], the half-maximal effective concentration (EC50) in experiment [1] came to 21.3 nM. In addition, the IC50 in experiment [2] came to 122 nM.

Turning to `[2H]C([2H])([2H])n1c(=O)nc(N2CCOCc3c(C#CC(C)(C)NC(=O)C4(C(F)(F)F)CC4)cccc32)c2c(F)cccc21` [Example 176, N-(4-(1-(5-fluoro-1-(methyl-d3)-2-oxo-1,2-dihydroquinazolin-4-yl)-1,2,3,5-tetrahydrobenzo[e][1,4]oxazepin-6-yl)-2-methylbut-3-yn-2-yl)-1-(trifluoromethyl)cyclopropane-1-carboxamide], the EC50 in experiment [1] was 5.36 nM. This compound also gave a half-inhibitory concentration (IC50) in experiment [2] of 2.4 nM.

`[2H]C([2H])([2H])n1c(=O)nc(N2CCOCc3c(C#Cc4coc(C)n4)cccc32)c2c(F)cccc21` [Example 177, 5-fluoro-1-(methyl-d3)-4-(6-((2-methyloxazol-4-yl)ethynyl)-2,3-dihydrobenzo[e][1,4]oxazepin-1(5H)-yl)quinazolin-2(1H)-one]: the EC50 in experiment [1] came to 18.8 nM. In experiment [2], this compound came in with an IC50 of 17.5 nM.
